We go through 11 molecules from PubChem BioAssay (NCI).

Molecules are shown by their SMILES.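 Cells were grown in 96-well plates and exposed to each compound for 48 hours at five concentrations; endpoints were interpolated linearly between bracketing concentrations, or set to the highest concentration if not reached. TGI denotes the concentration required for complete inhibition of growth.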

Holding throughout (test): growth of human tumour cells (NCI), 48 h
In test [1] the test system is BT-549 breast.
Test [2] has as its system A549 NSCLC.
The test system of test [3] is U251 CNS.
Test [4] deals with M14 melanoma.
Test [5] has as its system MOLT-4 leukemia.
The test system of test [6] is TK-10 renal.
Test [7] has as its system SNB-19 CNS.
For test [8], the system named is HCC-2998 colon.
Test [9] relates to MDA-MB-231 breast.
In test [10] the test system is UACC-62 melanoma.
In test [11] the test system is K-562 leukemia.
Test [12] concerns 786-0 renal.
The subject of test [13] is LOX IMVI melanoma.

As for `O=c1c(Sc2ncccn2)c(Sc2ncccn2)cnn1CCl`, the TGI in [1] amounted to 31 µM; in test [2] it was 35.5 µM; in test [3], 19.7 µM; in [4] it was 4.76 µM; in test [5] it was 10.6 µM; in test [6], 11.4 µM. Besides, the TGI in test [7] was determined as 32.8 µM; in test [8], 24 µM; in test [9] it was 19 µM; in test [10], 19 µM; in test [11] it was 20.5 µM; in [12] it was 4.79 µM. Further, in test [13], the TGI worked out at 5.28 µM.
For `O=C(Nc1ccc(S(=O)(=O)Nc2ncccn2)cc1)c1c2ccccc2nc2ccccc12`, the TGI in [1], in test [2], in [3], in test [4], in [5] and in test [6] was above 100 µM each time. Moreover, the TGI in test [7], in [8], in [9], in test [10], in test [11] and in test [12] was above 100 µM throughout. In test [13], this molecule gave a TGI above 100 µM.
In the case of `C[N+]12CCCCC1C(CN1C(=O)c3ccccc3C1=O)CCC2` (stereo not drawn), the TGI in test [1], in [2], in [3], in test [4], in test [5] and in [6] was above 100 µM throughout. Besides, the TGI in test [7], in [8], in test [9], in [10], in test [11] and in [12] was above 100 µM each time. Also, in test [13], the TGI is above 100 µM.
In the case of `Cc1nc(Nc2nc3ccccc3[nH]2)[nH]c(=O)c1CCO`, the TGI was above 100 µM in test [1]; above 100 µM in test [2]; above 100 µM in test [3]; 98.9 µM in test [4]; above 100 µM in test [5]; above 81.4 µM in [6]. The TGI in test [7], in [8], in [9], in test [10], in test [11] and in test [12] was above 100 µM each time. In test [13], the TGI is above 94.7 µM.
On to `O=C1Nc2ccc(Br)cc2/C1=C/C(=O)c1ccccc1`, for which the TGI was 24.6 µM in test [1]; above 62.6 µM in [2]; 36.7 µM in test [3]; 28.1 µM in test [4]; above 26.4 µM in [5]; 3.7 µM in [6]. Besides, the TGI was 37.7 µM in [7]; 29 µM in test [8]; 29.5 µM in [9]; 32.9 µM in [10]; above 100 µM in [11]; 3.28 µM in [12]. The molecule further registered a TGI in test [13] of 4.02 µM.
As for `CN1CCCC(C(=O)OCC(=O)C2(O)CCC3C4CCC5=CC(=O)CCC5(C)C4C(O)CC32C)C1` (stereo not drawn), the TGI in [1] was 33.6 µM; in test [2], above 67.6 µM; in test [3] it was 16 µM; in test [4] it was 59.3 µM; in [5] it was 48.4 µM; in test [6] it was 42.2 µM. Moreover, the TGI stood at 30.9 µM in test [7]; 22.1 µM in test [8]; 19.2 µM in test [9]; 37.7 µM in test [10]; 28.7 µM in test [11]; 14.3 µM in test [12]. This molecule also yielded a TGI in [13] of 30.6 µM.
Take `COc1ccccc1N1C(=O)CC(=O)N(C(=O)CCCCCCCCC(=O)N2C(=O)CC(=O)N(c3ccccc3OC)C2=S)C1=S`: the TGI in test [1], in test [2], in test [3], in [4], in [5] and in test [6] was above 100 µM each time. The TGI in [7], in test [8], in test [9], in [10], in test [11] and in [12] was above 100 µM in each case. In test [13], this molecule returned a TGI above 100 µM.
For the molecule `O=C(O)CO/N=C1/C(c2c(O)[nH]c3ccccc23)=Nc2ccccc21`, the TGI in [1], in test [2], in test [3], in test [4], in test [5] and in test [6] was above 100 µM throughout. The TGI in test [7], in [8], in [9], in [10], in test [11] and in test [12] was above 100 µM in each case. In test [13], this molecule showed a TGI above 100 µM.
Take `CCCCCCC(=O)OC[n+]1cccc(-c2c(COC(=O)NC(C)C)c(COC(=O)NC(C)C)c3n2CCC3)c1`: the TGI in test [1] is above 96.4 µM; in [2] it was above 100 µM; in [3], above 100 µM; in test [4] it was above 100 µM; in test [5] it was above 80.7 µM; in test [6] it was above 100 µM. The TGI is above 100 µM in test [7]; above 100 µM in [8]; above 100 µM in test [9]; 72.9 µM in test [10]; above 100 µM in test [11]; above 69.8 µM in test [12]. Further, the TGI in [13] was 69 µM.
For the molecule `CC(C)OP(=O)(OC(C)C)C(Nc1cccc(C(F)(F)F)c1)c1ccccc1` (stereo not drawn), the TGI in test [1] was above 100 µM; in [2], above 100 µM; in test [3] it was above 100 µM; in [4] it was above 100 µM; in test [5] it was 65.5 µM; in test [6] it was above 100 µM. Besides, the TGI in test [7], in test [8], in [9], in [10], in test [11] and in test [12] was above 100 µM each time. Further, in test [13], the TGI was above 100 µM.
With `CC(=O)/C(=C(/Br)I)c1ccccc1`, the TGI in [1] came out at 6.33 µM; in [2] it was 51.7 µM; in test [3] it was 26.5 µM; in test [4], 21.3 µM; in test [5], 20.5 µM; in [6] it was 36.3 µM. Besides, the TGI in test [7] was 37.5 µM; in test [8], 12.3 µM; in test [9] it was 28.7 µM; in test [10], above 48.4 µM; in test [11] it was above 31.6 µM; in [12], 28 µM. Besides, the TGI in test [13] was found to be 22.5 µM.
